The values that follow come from article PMC8716824, “Design, Synthesis and Anti-Lung Cancer Evaluation of 1, 2, 3-Triazole Tethered Dihydroartemisinin-Isatin Hybrids” (Frontiers in Pharmacology, 2021).

Structures are written as SMILES. Where two headings read alike, the source gives them in different places.

Common to all, as to assay type: cell-based
Test [1] deals with mouse embryonic fibroblast cells NIH/3T3. In words: MTT cytotoxicity assay, NIH/3T3. To be noted: for SI (selectivity index): IC50(NIH/3T3)/IC50(A549); for IC50: cytotoxicity, NIH/3T3 cells, MTT (called CC50 in method). The procedure: The antiproliferative activity of 1,2,3-triazole tethered dihydroartemisinin-isatin hybrids 8a-c and 9a-k against A549, multidrug-resistant A549/DOX and A549/DDP lung cancer cell lines as well as cytotoxicity towards mouse embryonic fibroblast cells NIH/3T3 were assessed by 3-(4,5-dimethylthiazol-2-yl)-2,5-diphenyltetrazolium bromide (MTT) assay, and half maximal inhibitory concentration (IC50) values were listed in Table 2.
The cytotoxicity (CC50) of the synthesized 1,2,3-triazole tethered dihydroartemisinin-isatin hybrids 8a-c and 9a-k were examined by the MTT assay in mouse embryonic fibroblast cells NIH/3T3. The compounds were dissolved in DMSO with concentrations from 1,024 to 1 μg/ml. The NIH/3T3 cells were maintained in culture medium at 37°C under 5% CO2 atmosphere. Cells were seeded in 96-well plates (1 × 10^4 cell per well) and allowed to recover for 24 h. After 72 h of exposure, cells were harvested and cell viability was assessed by MTT assay. The CC50 values were calculated by Bliss analy.
For orientation: Tetrazolium assays rely on reduction of a dye to a coloured formazan, in cell work by metabolically active cells.

For test [2], the system named is doxorubicin-resistant A549 (A549/DOX) lung cancer cells. In words: MTT antiproliferative assay, A549/DOX. The method, then:
(§1) The antiproliferative activity of 1,2,3-triazole tethered dihydroartemisinin-isatin hybrids 8a-c and 9a-k against A549, multidrug-resistant A549/DOX and A549/DDP lung cancer cell lines as well as cytotoxicity towards mouse embryonic fibroblast cells NIH/3T3 were assessed by 3-(4,5-dimethylthiazol-2-yl)-2,5-diphenyltetrazolium bromide (MTT) assay, and half maximal inhibitory concentration (IC50) values were listed in Table 2. A549, A549/DOX, and A549/DDP lung cancer cells (2 × 10^3) were plated in each well of a 96-well plate and were allowed to adhere and spread for 24 h. The 1,2,3-triazole tethered dihydroartemisinin-isatin hybrids 8a-c and 9a-k were added to a final concentration of 100 μM, and the cells were cultured for 24 h at 37°C. 3-(4,5-dimethyl-2-thiazolyl)-2,5-diphenyltetrazolium bromide (MTT) solution (10 µL) was added to each well, and the cultures were incubated for an additional 4 h. A further 100 µL of […] was added and incubation continued overnight. The absorbance at 540 nm was determined in each well with a 96-well plate reader. The growth of the treated cells was compared with that of untreated cells.

For test [3], the system named is cisplatin-resistant A549 (A549/DDP) lung cancer cells. Kind of test: MTT antiproliferative assay, A549/DDP. The procedure: as §1
For test [4], the system named is A549 lung cancer cells. Kind of test: MTT antiproliferative assay, A549. The method, then: as §1
Test [5] relates to A549, A549/DOX and A549/DDP lung cancer cell lines. In words: MTT antiproliferative assay, ranges pooled over lung cancer cell lines. The method, then:
as §1

The mark [6] stands for this setting: range over the three lung cancer cell lines, read-out: IC50, range over A549, A549/DOX and A549/DDP.

Consider `CON=C1C(=O)N(CCn2cc(COC3O[C@@H]4O[C@@]5(C)CC[C@H]6[C@H](C)CC[C@@H]([C@H]3C)[C@@]46OO5)nn2)c2ccc(OC)cc21` (stereo partly drawn) [9f, 5-methoxy-3-(methoxyimino)-1-(2-(4-((((3R,5aS,6R,8aS,9R,12R,12aR)-3,6,9-trimethyldecahydro-12H-3,12-epoxy[1,2]dioxepino[4,3-i]isochromen-10-yl)oxy)methyl)-1H-1,2,3-triazol-1-yl)ethyl)indolin-2-one], for which, in test [1], the “SI (selectivity index)” value is >1.5. Besides, the IC50 was > 100 µM in test [1] (Mus musculus, NIH3T3); 79.5 µM in test [2] (Homo sapiens); 51.8 µM in test [3] (A549/DDP); 65.4 µM in test [4] (Homo sapiens).
Turning to `CCON=C1C(=O)N(CCn2cc(COC3O[C@@H]4O[C@@]5(C)CC[C@H]6[C@H](C)CC[C@@H]([C@H]3C)[C@@]46OO5)nn2)c2ccccc21` (stereo partly drawn) [9d, 3-(ethoxyimino)-1-(2-(4-((((3R,5aS,6R,8aS,9R,12R,12aR)-3,6,9-trimethyldecahydro-12H-3,12-epoxy[1,2]dioxepino[4,3-i]isochromen-10-yl)oxy)methyl)-1H-1,2,3-triazol-1-yl)ethyl)indolin-2-one], the “SI (selectivity index)” value in test [1] was >3.9. The IC50 in test [1] (Mus musculus, NIH3T3) was > 100 µM; in test [2] (Homo sapiens), 20.8 µM; in test [3] (A549/DDP), 33.7 µM; in test [4] (Homo sapiens), 25.6 µM.
In the case of `N.N.[Cl][Pt][Cl]` [cisplatin, reference compound], the IC50 in test [1] was > 100 µM; in test [5] (range over A549 and A549/DOX, read-out: IC50, range over A549 and A549/DOX), 9.38 to 19.7 µM; in test [5] (setting [6]), 9.38 to 66.9 µM; in test [2], 19.7 µM; in test [3], 66.9 µM; in test [4], 9.38 µM.
As for `CON=C1C(=O)N(CCn2cc(COC3O[C@@H]4O[C@@]5(C)CC[C@H]6[C@H](C)CC[C@@H]([C@H]3C)[C@@]46OO5)nn2)c2ccc(F)cc21` (stereo partly drawn) [9j, 5-fluoro-3-(methoxyimino)-1-(2-(4-((((3R,5aS,6R,8aS,9R,12R,12aR)-3,6,9-trimethyldecahydro-12H-3,12-epoxy[1,2]dioxepino[4,3-i]isochromen-10-yl)oxy)methyl)-1H-1,2,3-triazol-1-yl)ethyl)indolin-2-one], the “SI (selectivity index)” value in test [1] is >10.4. The IC50 in test [1] (Mus musculus, NIH3T3) was > 100 µM; in test [2] (Homo sapiens), 13 µM; in test [3] (A549/DDP), 38.2 µM; in test [4] (Homo sapiens), 9.61 µM.
As to `C[C@@H]1CC[C@H]2[C@@H](C)C(OCc3cn(CCN4C(=O)C(=NOCc5ccccc5)c5ccccc54)nn3)O[C@@H]3O[C@@]4(C)CC[C@@H]1[C@]32OO4` (stereo partly drawn) [9e, 3-((benzyloxy)imino)-1-(2-(4-((((3R,5aS,6R,8aS,9R,12R,12aR)-3,6,9-trimethyldecahydro-12H-3,12-epoxy[1,2]dioxepino[4,3-i]isochromen-10-yl)oxy)methyl)-1H-1,2,3-triazol-1-yl)ethyl)indolin-2-one], in test [1], the “SI (selectivity index)” value is recorded as >6.1. In addition, the IC50 in test [1] (Mus musculus, NIH3T3) is > 100 µM; in test [2] (Homo sapiens), 31.4 µM; in test [3] (A549/DDP), 29.9 µM; in test [4] (Homo sapiens) it was 16.3 µM.
Turning to `CCON=C1C(=O)N(CCn2cc(COC3O[C@@H]4O[C@@]5(C)CC[C@H]6[C@H](C)CC[C@@H]([C@H]3C)[C@@]46OO5)nn2)c2ccc(OC)cc21` (stereo partly drawn) [9g, 3-(ethoxyimino)-5-methoxy-1-(2-(4-((((3R,5aS,6R,8aS,9R,12R,12aR)-3,6,9-trimethyldecahydro-12H-3,12-epoxy[1,2]dioxepino[4,3-i]isochromen-10-yl)oxy)methyl)-1H-1,2,3-triazol-1-yl)ethyl)indolin-2-one], the “SI (selectivity index)” value in test [1] was >1.3. In addition, the IC50 is > 100 µM in test [1] (Mus musculus, NIH3T3); 45 µM in test [2] (Homo sapiens); 61.7 µM in test [3] (A549/DDP); 73.8 µM in test [4] (Homo sapiens).
The like results for `CCON=C1C(=O)N(CCn2cc(COC3O[C@@H]4O[C@@]5(C)CC[C@H]6[C@H](C)CC[C@@H]([C@H]3C)[C@@]46OO5)nn2)c2ccc(F)cc21` (stereo partly drawn) [9k, 3-(ethoxyimino)-5-fluoro-1-(2-(4-((((3R,5aS,6R,8aS,9R,12R,12aR)-3,6,9-trimethyldecahydro-12H-3,12-epoxy[1,2]dioxepino[4,3-i]isochromen-10-yl)oxy)methyl)-1H-1,2,3-triazol-1-yl)ethyl)indolin-2-one] were, in that order, >6.3, > 100 µM, 31.1 µM, 28.7 µM and 15.8 µM.
For `COc1ccc2c(c1)C(=NOCc1ccccc1)C(=O)N2CCn1cc(COC2O[C@@H]3O[C@@]4(C)CC[C@H]5[C@H](C)CC[C@@H]([C@H]2C)[C@@]35OO4)nn1` (stereo partly drawn) [9h, 3-((benzyloxy)imino)-5-methoxy-1-(2-(4-((((3R,5aS,6R,8aS,9R,12R,12aR)-3,6,9-trimethyldecahydro-12H-3,12-epoxy[1,2]dioxepino[4,3-i]isochromen-10-yl)oxy)methyl)-1H-1,2,3-triazol-1-yl)ethyl)indolin-2-one], the “SI (selectivity index)” value in test [1] was >2.2. Moreover, the IC50 in test [1] (Mus musculus, NIH3T3) is > 100 µM; in test [2] (Homo sapiens), 77.7 µM; in test [3] (A549/DDP), 59.4 µM; in test [4] (Homo sapiens) it was 44.7 µM.
With `C[C@@H]1CC[C@H]2[C@@H](C)C(OCc3cn(CCN4C(=O)C(=NNC(N)=S)c5ccccc54)nn3)O[C@@H]3O[C@@]4(C)CC[C@@H]1[C@]32OO4` (stereo partly drawn) [9a, 2-(2-oxo-1-(2-(4-((((3R,5aS,6R,8aS,9R,12R,12aR)-3,6,9-trimethyldecahydro-12H-3,12-epoxy[1,2]dioxepino[4,3-i]isochromen-10-yl)oxy)methyl)-1H-1,2,3-triazol-1-yl)ethyl)indolin-3-ylidene)hydrazine-1-carbothioamide], the “SI (selectivity index)” value in test [1] was >6.1. In addition, the IC50 in test [1] (Mus musculus, NIH3T3) is > 100 µM; in test [2] (Homo sapiens), 38.4 µM; in test [3] (A549/DDP) it was 30.9 µM; in test [4] (Homo sapiens) it was 16.3 µM.
As for `C[C@@H]1CC[C@H]2[C@@H](C)C(=O)O[C@@H]3O[C@@]4(C)CC[C@@H]1[C@]32OO4` [Artemisinin], the IC50 in test [1] (Mus musculus, NIH3T3) is > 100 µM; in test [5] (setting [6]), > 100 µM; in test [2] (Homo sapiens), > 100 µM; in test [3] (A549/DDP), > 100 µM; in test [4] (Homo sapiens), > 100 µM.
For `CON=C1C(=O)N(CCn2cc(COC3O[C@@H]4O[C@@]5(C)CC[C@H]6[C@H](C)CC[C@@H]([C@H]3C)[C@@]46OO5)nn2)c2ccccc21` (stereo partly drawn) [9c, 3-(methoxyimino)-1-(2-(4-((((3R,5aS,6R,8aS,9R,12R,12aR)-3,6,9-trimethyldecahydro-12H-3,12-epoxy[1,2]dioxepino[4,3-i]isochromen-10-yl)oxy)methyl)-1H-1,2,3-triazol-1-yl)ethyl)indolin-2-one], the “SI (selectivity index)” value in test [1] is >4.4. The IC50 in test [1] (Mus musculus, NIH3T3) is > 100 µM; in test [2] (Homo sapiens), 19.5 µM; in test [3] (A549/DDP) it was 27.4 µM; in test [4] (Homo sapiens) it was 22.7 µM.
On to `C[C@H]1[C@@H](O)O[C@@H]2O[C@@]3(C)CC[C@H]4[C@H](C)CC[C@@H]1[C@@]24OO3` [DHA, Dihydroartemisinin], for which, in test [1], the “SI (selectivity index)” value is >1.4. Moreover, the IC50 in test [1] (Mus musculus, NIH3T3) was > 100 µM; in test [5] (setting [6]), 69.4 to 88 µM; in test [2] (Homo sapiens), 88 µM; in test [3] (A549/DDP) it was 75.9 µM; in test [4] (Homo sapiens), 69.4 µM.
Regarding `COc1ccc2c(c1)C(=O)C(=O)N2CCn1cc(COC2O[C@@H]3O[C@@]4(C)CC[C@H]5[C@H](C)CC[C@@H]([C@H]2C)[C@@]35OO4)nn1` (stereo partly drawn) [8b, 5-methoxy-1-(2-(4-((((3R,5aS,6R,8aS,9R,12R,12aR)-3,6,9-trimethyldecahydro-12H-3,12-epoxy[1,2]dioxepino[4,3-i]isochromen-10-yl)oxy)methyl)-1H-1,2,3-triazol-1-yl)ethyl)indoline-2,3-dione], the “SI (selectivity index)” value in test [1] is >4.6. The IC50 in test [1] (Mus musculus, NIH3T3) is > 100 µM; in test [2] (Homo sapiens), 32 µM; in test [3] (A549/DDP), 19.5 µM; in test [4] (Homo sapiens), 21.6 µM.
Take `C[C@@H]1CC[C@H]2[C@@H](C)C(OCc3cn(CCN4C(=O)C(=NO)c5ccccc54)nn3)O[C@@H]3O[C@@]4(C)CC[C@@H]1[C@]32OO4` (stereo partly drawn) [9b, 3-(hydroxyimino)-1-(2-(4-((((3R,5aS,6R,8aS,9R,12R,12aR)-3,6,9-trimethyldecahydro-12H-3,12-epoxy[1,2]dioxepino[4,3-i]isochromen-10-yl)oxy)methyl)-1H-1,2,3-triazol-1-yl)ethyl)indolin-2-one]: in test [1], the “SI (selectivity index)” value is >8.3. For the same molecule, the IC50 in test [1] (Mus musculus, NIH3T3) was > 100 µM; in test [2] (Homo sapiens), 26.1 µM; in test [3] (A549/DDP), 30.3 µM; in test [4] (Homo sapiens) it was 12 µM.
